The text below walks through data of patent publication US20090209538A1, “THERAPEUTIC SUBSTITUTED LACTAMS” (ALLERGAN, INC., priority 2008, published 2009).

This assay deals with patients having glaucoma (lashes and adjacent hairs). Description: Clinical observation of lash and hair growth in glaucoma patients treated in one eye. The settings on record: glaucoma patients treated unilaterally; treated versus control areas. The class given is in vivo, humans. The source says: In the course of treating patients having glaucoma, treatment may only be appropriate in one eye. […] The lash appearance on the lids of the treated eyes would have appeared quite attractive if it represented a bilateral phenomenon. As a result of its asymmetric nature, the long lashes on one side could be construed as disturbing from a cosmetic standpoint. A systemic examination was preformed as a result of the asymmetric phenomenon. It soon became apparent that this altered appearance was not an isolated finding. […] Definite differences could be identified to varying degrees in the lashes and adjacent hairs of all patients who were taking the drug on a unilateral basis for longer than 6 months.
The changes in the lashes were apparent on gross inspection in several patients once attention was focused on the issue. In those with light colored hair and lashes, the differences were only seen easily with the aid of the high magnification and lighting capabilities of the slit lamp biomicroscope. In the course of glaucoma follow-up examination, attention is generally immediately focused on the eye itself. As a result of the high power magnification needed only one eye is seen at a time and the eye is seen at a high enough power that the lashes are not in focus. […]

“Also recorded” adds a separate entry of the source.

For the compound `CCNC(=O)CCC/C=C\C[C@@H]1[C@@H](/C=C/[C@@H](O)CCc2ccccc2)[C@H](O)C[C@@H]1O` [bimatoprost], the “lash / hair growth in treated eye versus non-treated eye” value is “longer, thicker, and fuller in the treated eye than in the non-treated eye; also recorded: hair growth is stimulated”.
